Experiments:
[1] = tested on: COX-1; experiment: Western blot analysis of COX-1; format: cell-based; details: versus untreated control
Text: (§1) The anti-inflammatory activities of compounds HI and HL were further confirmed by Western blotting analysis of COX-1/COX-2.
(§2) For validating the anti-inflammatory pathway at the protein expression level, we used the immunoblotting (Western blot) technique.

[2] = tested on: COX-2; experiment: Western blot analysis of COX-2; format: cell-based; details: versus untreated control
Text: as §1, §2

[3] = molecular target: T1, ovine COX-1 (Ovis aries, UniProt P05979); experiment: In vitro COX-1 isozyme inhibition assay (EIA/ELISA kit, Cayman)
T1 sequence (P05979 25-600): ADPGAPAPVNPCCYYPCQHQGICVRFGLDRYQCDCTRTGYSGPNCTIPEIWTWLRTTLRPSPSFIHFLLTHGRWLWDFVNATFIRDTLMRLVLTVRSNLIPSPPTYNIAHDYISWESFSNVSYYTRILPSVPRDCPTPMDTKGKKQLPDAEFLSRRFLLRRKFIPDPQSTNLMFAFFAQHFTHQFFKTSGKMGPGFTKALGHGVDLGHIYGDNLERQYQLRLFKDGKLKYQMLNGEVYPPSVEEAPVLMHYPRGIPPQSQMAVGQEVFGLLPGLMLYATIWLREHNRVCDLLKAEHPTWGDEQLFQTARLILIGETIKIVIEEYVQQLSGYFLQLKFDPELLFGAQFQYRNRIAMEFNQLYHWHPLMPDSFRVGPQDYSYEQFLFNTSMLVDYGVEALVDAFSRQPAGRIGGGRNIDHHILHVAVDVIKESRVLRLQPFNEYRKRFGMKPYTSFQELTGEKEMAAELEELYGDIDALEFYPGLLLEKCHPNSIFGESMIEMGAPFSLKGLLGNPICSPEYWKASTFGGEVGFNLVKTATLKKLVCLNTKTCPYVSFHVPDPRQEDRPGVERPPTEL

[4] = tested on: Human Dermal Fibroblast (HDF) cell line; experiment: Cell viability using MTT assay; format: cell-based; details: 24 h, 0.1-100 µM, read-out: IC50 against fibroblast cells
Experimental: The synthesized compounds were screened for their cytotoxic activities against fibroblast cell lines at different concentrations for 24 h using MTT assay. […] Human Dermal Fibroblast (HDF) cell line was bought from the American Type Culture Collection (ATCC; Minnesota, USAHB-8065). It was cultured in Park Memorial Institute (RPMI-1640) culture media with glutamine 2 mM (bio west, Nampa, cat. no. L0498-500), 10% fetal bovine serum (PAA, Pasching Austria, cat. no. A11-151) and penicillin with streptomycin 1% (Lonza, Verviers, Belgium, cat. no. DE17-602E). The HDF cells were grown in 50 cm^2 flask (Greinerbio-one GmbH Maybach-str. 272636 Frickenhausen, Germany) and preserved in a typical humidified incubator supplied with 5% CO2, 95% air at 37 °C (New Brunswick Scientific-Innova co-170). Cells were washed with cold phosphate-buffered saline, trypsinized, harvested and centrifuged to form cell pellets. The cultured HDFa were plated in 96 well microplates at a concentration of 5 × 10^4 cells per well 24 h before the MTT assay to allow microplate adherence. MTT Reagent was provided, prepared for use, and acquired from Biospes, China, Cat n#BAR1005-1. According to the manufacturer protocol, the cultured cells were presented with different concentrations of the assessed agents. 20 μL of MTT solution was filled with each well. For 4 h, the plate was kept at 37 °C. After incubation, 100 μL of formazan diluent buffer (Biospes, Chongqing, China, Cat n#BAR1005-1) was poured into each well. ELISA plate reader (Stat Fax 2200, Awareness Technologies, Palm City, FL, USA) measured color absorbance at 540 nm. Three readings were taken on three different days and averaged for each sample. At last, cell survival was determined according to the following equation: %cell survival=Asample/Acontrol×100% Acontrol is the absorbance of the cell culture after adding MTT and formazan buffer, but without treatment by any drug candidate. […] IC50 values were then calculated by curve-fitting involving non-linear regression. […]

[5] = molecular target: T2, human recombinant COX-2 (Homo sapiens, UniProt P35354); experiment: In vitro COX-2 isozyme inhibition assay (EIA/ELISA kit, Cayman); details: for COX-2 SI (COX-1 IC50/COX-2 IC50): selectivity index
T2 sequence (P35354 18-604): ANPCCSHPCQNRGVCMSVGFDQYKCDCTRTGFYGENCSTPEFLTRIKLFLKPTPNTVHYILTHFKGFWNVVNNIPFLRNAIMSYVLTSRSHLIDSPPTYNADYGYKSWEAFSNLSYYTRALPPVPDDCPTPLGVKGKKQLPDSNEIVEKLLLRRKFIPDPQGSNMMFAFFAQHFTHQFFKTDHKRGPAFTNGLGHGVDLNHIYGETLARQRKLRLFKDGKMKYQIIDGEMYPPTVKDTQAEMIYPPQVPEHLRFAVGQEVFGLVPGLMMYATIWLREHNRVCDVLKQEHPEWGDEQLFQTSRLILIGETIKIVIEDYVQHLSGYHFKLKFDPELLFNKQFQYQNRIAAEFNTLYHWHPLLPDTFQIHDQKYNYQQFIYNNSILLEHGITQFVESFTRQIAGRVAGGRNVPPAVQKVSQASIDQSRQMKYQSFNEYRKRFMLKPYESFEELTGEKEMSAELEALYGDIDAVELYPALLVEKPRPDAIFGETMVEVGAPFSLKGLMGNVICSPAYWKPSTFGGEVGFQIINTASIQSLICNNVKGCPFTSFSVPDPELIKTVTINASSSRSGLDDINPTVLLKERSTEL

[6] = Solubility examined in various solvents; format: physicochemical; details: organic solvents
Text: . H% = 7.46 (7.51); N% = 8.63 (8.55), calc. (found), respectively (Table 1).

CC(C)Cc1ccc(C(C)C(=O)NN)cc1 (stereo not drawn) [HI, 2-(4-Isobutylphenyl) Propane Hydrazide]
COX-1 protein level by Western blot [1]: downregulation | melting point: 85 °C | COX-2 protein level by Western blot [2]: downregulation | IC50 [3]: 7.5 µM | IC50 [4]: 3.9 µM | IC50 [5]: 4.3 µM | COX-2 SI (COX-1 IC50/COX-2 IC50) [5]: 1.7

CC(C)Cc1ccc(C(C)C(=O)NN=Cc2ccccc2O)cc1 (stereo not drawn) [HL]
COX-1 protein level by Western blot [1]: downregulation | Solubility in solvents [6]: soluble in DMSO, DMF, ethanol, methanol, and acetonitrile | COX-2 protein level by Western blot [2]: downregulation | IC50 [3]: 8.6 µM | IC50 [4]: 4.13 µM | IC50 [5]: 4.9 µM | COX-2 SI (COX-1 IC50/COX-2 IC50) [5]: 1.8

CC(C)Cc1ccc(C(C)C(=O)O)cc1 (stereo not drawn) [Ibuprofen, reference compound]
IC50 [4]: 30.6 µM

Reference: publication PMC9653649 (Molecules, 2022)
